Results taken from EP4596574A1, “GLP-1/GCG/GIP TRIPLE-RECEPTOR AGONIST AND USE THEREOF” (Sunshine Lake Pharma Co., Ltd., priority 2022, dated 2024).
Starred links: 1 amine or outer side, 2 acyl side, 3 side chain; linkers in the order of their positions; H or OH if unused. Non-standard residues stand in square brackets, D forms with d. Residues, ends and D or L forms follow the SMILES beside them. Groups on a side chain read outwards from the residue. *: point of attachment. C18 diacid = O=C(O)CCCCCCCCCCCCCCCCC(=O)*; αMePhe(2-F) = C[C@](N)(Cc1ccccc1F)C(=O)O; γGlu = O=C(O)[C@H](CCC(=O)[*:2])N[*:1]; AEEA = NCCOCCOCC(=O)O; Aib = CC(C)(N)C(=O)O

Legend:
Type in all cases: cell-based
[1] = biological target: T1, GLP-1R (Homo sapiens, UniProt P43220); experiment: In vitro cell activity, cAMP production in HEK293 cells expressing GLP-1R; conditions: HEK293-GLP-1R cells, cAMP; read-out: GLP-1R (EC50)
T1 construct: expressed in transfected cells; host or cells: HEK293 (HEK293-GLP-1R)
Summary of the method: (§1)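 Cells were plated at 4×10^5 cells/mL, and detection reagents (cAMP-d2, anti-cAMP cryptate, 1:1) were incubated 1 h at room temperature in the dark or overnight at 4 °C.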

[2] = biological target: T2, GCGR (Homo sapiens, UniProt P47871); experiment: In vitro cell activity, cAMP production in HEK293 cells expressing GCGR; conditions: HEK293-GCGR cells, cAMP; read-out: GCGR (EC50)
T2 construct: expressed in transfected cells; host or cells: HEK293 (HEK293-GCGR)
Summary of the method: as §1

[3] = biological target: T3, GIPR (Homo sapiens, UniProt P48546); experiment: In vitro cell activity, cAMP production in HEK293 cells expressing GIPR; conditions: HEK293-GIPR cells, cAMP; read-out: GIPR (EC50)
T3 construct: expressed in transfected cells; host or cells: HEK293 (HEK293-GIPR)
T3 sequence (P48546 22-466): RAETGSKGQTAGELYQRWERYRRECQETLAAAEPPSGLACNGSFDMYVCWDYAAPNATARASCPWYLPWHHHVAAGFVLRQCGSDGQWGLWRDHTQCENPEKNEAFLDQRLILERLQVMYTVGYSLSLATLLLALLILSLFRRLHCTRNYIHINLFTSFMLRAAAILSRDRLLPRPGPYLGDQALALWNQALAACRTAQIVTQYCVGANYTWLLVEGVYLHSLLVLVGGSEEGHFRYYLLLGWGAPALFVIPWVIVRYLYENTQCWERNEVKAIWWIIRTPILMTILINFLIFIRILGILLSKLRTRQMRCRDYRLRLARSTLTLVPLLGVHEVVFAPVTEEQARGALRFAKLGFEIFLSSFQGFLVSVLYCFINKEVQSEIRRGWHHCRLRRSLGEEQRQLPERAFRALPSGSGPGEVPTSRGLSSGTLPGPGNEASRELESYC
Summary of the method: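 cAMP accumulation is quantified by homogeneous TR-FRET (cAMP-d2 plus anti-cAMP cryptate) in GIPR-expressing HEK293 cells seeded from a 4×10^5 cells/mL suspension and treated with compound. The signal ratio is plotted against concentration and fitted to a four-parameter curve to give EC50.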

T1 sequence (P43220 24-463, species assumed): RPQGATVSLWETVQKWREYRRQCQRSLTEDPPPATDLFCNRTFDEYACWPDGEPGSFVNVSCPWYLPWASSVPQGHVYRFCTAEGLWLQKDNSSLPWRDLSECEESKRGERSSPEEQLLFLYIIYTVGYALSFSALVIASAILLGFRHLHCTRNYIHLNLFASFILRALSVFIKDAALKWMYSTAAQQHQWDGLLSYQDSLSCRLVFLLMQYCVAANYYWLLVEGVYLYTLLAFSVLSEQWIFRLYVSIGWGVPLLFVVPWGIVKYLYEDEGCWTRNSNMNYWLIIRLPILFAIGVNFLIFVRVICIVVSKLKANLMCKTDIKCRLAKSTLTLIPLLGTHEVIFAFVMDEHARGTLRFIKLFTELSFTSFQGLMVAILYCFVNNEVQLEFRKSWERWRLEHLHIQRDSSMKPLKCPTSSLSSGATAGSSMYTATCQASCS
T2 sequence (P47871 26-477, species assumed): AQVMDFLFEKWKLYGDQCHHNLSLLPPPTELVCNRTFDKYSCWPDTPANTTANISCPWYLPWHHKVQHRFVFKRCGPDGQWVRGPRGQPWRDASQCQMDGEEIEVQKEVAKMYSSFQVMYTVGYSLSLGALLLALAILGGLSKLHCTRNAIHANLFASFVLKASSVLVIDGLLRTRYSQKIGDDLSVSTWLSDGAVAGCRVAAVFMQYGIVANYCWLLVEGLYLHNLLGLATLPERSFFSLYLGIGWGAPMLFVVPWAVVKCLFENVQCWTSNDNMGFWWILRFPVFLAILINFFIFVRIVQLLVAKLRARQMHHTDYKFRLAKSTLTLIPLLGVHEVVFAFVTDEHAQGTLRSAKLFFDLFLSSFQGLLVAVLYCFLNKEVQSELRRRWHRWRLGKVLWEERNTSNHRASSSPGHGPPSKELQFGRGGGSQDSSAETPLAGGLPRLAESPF

| SMILES | EC50 [1] [nM] | EC50 [2] [nM] | EC50 [3] [nM] |
| --- | --- | --- | --- |
| CC[C@H](C)[C@H](NC(=O)[C@H](Cc1ccccc1)NC(=O)[C@H](C)NC(=O)[C@H](CCC(N)=O)NC(=O)[C@H](CCC(N)=O)NC(=O)[C@H](CCCNC(=N)N)NC(=O)[C@@H](NC(=O)[C@H](CCCNC(=N)N)NC(=O)[C@H](CC(=O)O)NC(=O)[C@H](CCCCNC(=O)COCCOCCNC(=O)CC[C@H](NC(=O)CCCCCCCCCCCCCCCCC(=O)O)C(=O)O)NC(=O)[C@H](CC(C)C)NC(=O)[C@@H](NC(=O)[C@H](CO)NC(=O)[C@H](Cc1ccc(O)cc1)NC(=O)[C@H](CC(=O)O)NC(=O)[C@H](CO)NC(=O)[C@@H](NC(=O)[C@](C)(Cc1ccccc1F)NC(=O)[C@@H](NC(=O)CNC(=O)[C@H](CCC(N)=O)NC(=O)C(C)(C)NC(=O)[C@@H](N)Cc1ccc(O)cc1)[C@@H](C)O)[C@@H](C)O)[C@@H](C)CC)[C@@H](C)CC)C(=O)N[C@@H](CCC(=O)O)C(=O)N[C@@H](Cc1ccc(O)cc1)C(=O)N[C@@H](CC(C)C)C(=O)N[C@@H](CC(C)C)C(=O)N[C@@H](CCC(=O)O)C(=O)NCC(=O)NCC(=O)N1CCC[C@H]1C(=O)N[C@@H](CO)C(=O)N[C@@H](CO)C(=O)NCC(=O)N[C@@H](C)C(=O)N1CCC[C@H]1C(=O)N1CCC[C@H]1C(=O)N1CCC[C@H]1C(=O)N[C@@H](CO)C(=O)O [HEC-PT146] (H-Y[Aib]QGT[αMePhe(2-F)]TSDYSILK([AEEA-γGlu-C18 diacid])DRIRQQAFIEYLLEGGPSSGAPPPS-OH) | 0.365 | 0.121 | 0.105 |
| CC[C@H](C)[C@H](NC(=O)[C@H](Cc1ccccc1)NC(=O)[C@H](C)NC(=O)[C@H](CCC(N)=O)NC(=O)[C@H](CCC(N)=O)NC(=O)[C@H](CCCNC(=N)N)NC(=O)[C@@H](NC(=O)[C@H](CCCNC(=N)N)NC(=O)[C@H](CC(=O)O)NC(=O)[C@H](CCCCNC(=O)COCCOCCNC(=O)CC[C@H](NC(=O)CCCCCCCCCCCCCCCCC(=O)O)C(=O)O)NC(=O)[C@H](CC(C)C)NC(=O)[C@@H](NC(=O)[C@H](CO)NC(=O)[C@H](Cc1ccc(O)cc1)NC(=O)[C@H](CC(=O)O)NC(=O)[C@H](CO)NC(=O)[C@@H](NC(=O)[C@](C)(Cc1ccccc1F)NC(=O)[C@@H](NC(=O)CNC(=O)[C@H](CCC(N)=O)NC(=O)C(C)(C)NC(=O)[C@@H](N)Cc1ccc(O)cc1)[C@@H](C)O)[C@@H](C)O)[C@@H](C)CC)[C@@H](C)CC)C(=O)N[C@@H](CCC(=O)O)C(=O)N[C@@H](Cc1ccc(O)cc1)C(=O)N[C@@H](CC(C)C)C(=O)N[C@@H](CC(C)C)C(=O)N[C@@H](C)C(=O)NCC(=O)NCC(=O)N1CCC[C@H]1C(=O)N[C@@H](CO)C(=O)N[C@@H](CO)C(=O)NCC(=O)N[C@@H](C)C(=O)N1CCC[C@H]1C(=O)N1CCC[C@H]1C(=O)N1CCC[C@H]1C(=O)N[C@@H](CO)C(=O)O [HEC-PT147] (H-Y[Aib]QGT[αMePhe(2-F)]TSDYSILK([AEEA-γGlu-C18 diacid])DRIRQQAFIEYLLAGGPSSGAPPPS-OH) | 0.174 | 0.17 | 0.0861 |
| CC[C@H](C)[C@H](NC(=O)[C@H](CO)NC(=O)[C@H](Cc1ccc(O)cc1)NC(=O)[C@H](CC(=O)O)NC(=O)[C@H](CO)NC(=O)[C@@H](NC(=O)[C@](C)(Cc1ccccc1F)NC(=O)[C@@H](NC(=O)CNC(=O)[C@H](CCC(N)=O)NC(=O)C(C)(C)NC(=O)[C@@H](N)Cc1ccc(O)cc1)[C@@H](C)O)[C@@H](C)O)C(=O)N[C@@H](CC(C)C)C(=O)N[C@@H](CCCCNC(=O)COCCOCCNC(=O)CC[C@H](NC(=O)CCCCCCCCCCCCCCCCC(=O)O)C(=O)O)C(=O)N[C@@H](CC(=O)O)C(=O)N[C@@H](CCCNC(=N)N)C(=O)N[C@@H](CCCNC(=N)N)C(=O)N[C@@H](C)C(=O)N[C@@H](CCC(N)=O)C(=O)N[C@@H](CCC(N)=O)C(=O)N[C@@H](C)C(=O)N[C@@H](Cc1ccccc1)C(=O)N[C@H](C(=O)N[C@@H](CCC(=O)O)C(=O)N[C@@H](Cc1ccc(O)cc1)C(=O)N[C@@H](CC(C)C)C(=O)N[C@@H](CC(C)C)C(=O)N[C@@H](C)C(=O)NCC(=O)NCC(=O)N1CCC[C@H]1C(=O)N[C@@H](CO)C(=O)N[C@@H](CO)C(=O)NCC(=O)N[C@@H](C)C(=O)N1CCC[C@H]1C(=O)N1CCC[C@H]1C(=O)N1CCC[C@H]1C(=O)N[C@@H](CO)C(=O)O)C(C)C [HEC-PT148] (H-Y[Aib]QGT[αMePhe(2-F)]TSDYSILK([AEEA-γGlu-C18 diacid])DRRAQQAFVEYLLAGGPSSGAPPPS-OH) | 0.0741 | 0.162 | 0.312 |
| CC[C@H](C)[C@H](NC(=O)[C@H](CO)NC(=O)[C@H](Cc1ccc(O)cc1)NC(=O)[C@H](CC(=O)O)NC(=O)[C@H](CO)NC(=O)[C@@H](NC(=O)[C@](C)(Cc1ccccc1F)NC(=O)[C@@H](NC(=O)CNC(=O)[C@H](CCC(N)=O)NC(=O)C(C)(C)NC(=O)[C@@H](N)Cc1ccc(O)cc1)[C@@H](C)O)[C@@H](C)O)C(=O)N[C@@H](CC(C)C)C(=O)N[C@@H](CCCCNC(=O)COCCOCCNC(=O)CC[C@H](NC(=O)CCCCCCCCCCCCCCCCC(=O)O)C(=O)O)C(=O)N[C@@H](CC(=O)O)C(=O)N[C@@H](CCCNC(=N)N)C(=O)N[C@@H](CCCNC(=N)N)C(=O)N[C@@H](C)C(=O)N[C@@H](CCC(N)=O)C(=O)N[C@@H](CCC(N)=O)C(=O)N[C@@H](C)C(=O)N[C@@H](Cc1ccccc1)C(=O)N[C@H](C(=O)N[C@@H](CCC(=O)O)C(=O)N[C@@H](Cc1ccc(O)cc1)C(=O)N[C@@H](CC(C)C)C(=O)N[C@@H](CC(C)C)C(=O)N[C@@H](CCC(=O)O)C(=O)NCC(=O)NCC(=O)N1CCC[C@H]1C(=O)N[C@@H](CO)C(=O)N[C@@H](CO)C(=O)NCC(=O)N[C@@H](C)C(=O)N1CCC[C@H]1C(=O)N1CCC[C@H]1C(=O)N1CCC[C@H]1C(=O)N[C@@H](CO)C(=O)O)C(C)C [HEC-PT149] (H-Y[Aib]QGT[αMePhe(2-F)]TSDYSILK([AEEA-γGlu-C18 diacid])DRRAQQAFVEYLLEGGPSSGAPPPS-OH) | 0.0868 | 0.138 | 0.264 |
| CC[C@H](C)[C@H](NC(=O)[C@H](Cc1ccccc1)NC(=O)[C@H](C)NC(=O)[C@H](CCC(N)=O)NC(=O)[C@H](CCC(N)=O)NC(=O)[C@H](C)NC(=O)[C@H](CCCCNC(=O)COCCOCCNC(=O)CC[C@H](NC(=O)CCCCCCCCCCCCCCCCC(=O)O)C(=O)O)NC(=O)[C@H](CCCNC(=N)N)NC(=O)[C@H](CC(=O)O)NC(=O)[C@H](CC(C)C)NC(=O)[C@H](CC(C)C)NC(=O)[C@@H](NC(=O)[C@H](CO)NC(=O)[C@H](Cc1ccc(O)cc1)NC(=O)[C@H](CC(=O)O)NC(=O)[C@H](CO)NC(=O)[C@@H](NC(=O)[C@](C)(Cc1ccccc1F)NC(=O)[C@@H](NC(=O)CNC(=O)[C@H](Cc1c[nH]cn1)NC(=O)C(C)(C)NC(=O)[C@@H](N)Cc1c[nH]cn1)[C@@H](C)O)[C@@H](C)O)[C@@H](C)CC)C(=O)N[C@@H](CCC(=O)O)C(=O)N[C@@H](Cc1ccc(O)cc1)C(=O)N[C@@H](CC(C)C)C(=O)N[C@@H](CC(C)C)C(=O)N[C@@H](C)C(=O)NCC(=O)NCC(=O)N1CCC[C@H]1C(=O)N[C@@H](CO)C(=O)N[C@@H](CO)C(=O)NCC(=O)N[C@@H](C)C(=O)N1CCC[C@H]1C(=O)N1CCC[C@H]1C(=O)N1CCC[C@H]1C(=O)N[C@@H](CO)C(=O)O [HEC-PT153] | 0.0752 | 0.0126 | 0.0169 |
| CC[C@H](C)[C@H](NC(=O)[C@H](Cc1ccccc1)NC(=O)[C@H](C)NC(=O)[C@H](Cc1c[nH]cn1)NC(=O)[C@H](CCC(N)=O)NC(=O)[C@H](C)NC(=O)[C@H](CCCCNC(=O)COCCOCCNC(=O)CC[C@H](NC(=O)CCCCCCCCCCCCCCCCC(=O)O)C(=O)O)NC(=O)[C@H](CCCNC(=N)N)NC(=O)[C@H](CC(=O)O)NC(=O)[C@H](CC(C)C)NC(=O)[C@H](CC(C)C)NC(=O)[C@@H](NC(=O)[C@H](CO)NC(=O)[C@H](Cc1ccc(O)cc1)NC(=O)[C@H](CC(=O)O)NC(=O)[C@H](CO)NC(=O)[C@@H](NC(=O)[C@](C)(Cc1ccccc1F)NC(=O)[C@@H](NC(=O)CNC(=O)[C@H](CCC(N)=O)NC(=O)C(C)(C)NC(=O)[C@@H](N)Cc1c[nH]cn1)[C@@H](C)O)[C@@H](C)O)[C@@H](C)CC)C(=O)N[C@@H](CCC(=O)O)C(=O)N[C@@H](Cc1ccc(O)cc1)C(=O)N[C@@H](CC(C)C)C(=O)N[C@@H](CC(C)C)C(=O)N[C@@H](C)C(=O)NCC(=O)NCC(=O)N1CCC[C@H]1C(=O)N[C@@H](CO)C(=O)N[C@@H](CO)C(=O)NCC(=O)N[C@@H](C)C(=O)N1CCC[C@H]1C(=O)N1CCC[C@H]1C(=O)N1CCC[C@H]1C(=O)N[C@@H](CO)C(=O)O [HEC-PT155] | 0.0555 | 0.0581 | 0.0509 |
